Measurements reported in PubChem BioAssay (NCI).
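The concentration for 50% growth inhibition is given as GI50. At the TGI there is no net growth.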

Columns and labels:
Experiment in all cases: DTP human tumour cell line panel, 384-well format
[1] = system: A549 NSCLC
[2] = system: NCI-H522 lung
[3] = system: ACHN renal
[4] = system: HOP-92 NSCLC
[5] = system: A498 renal
[6] = system: OVCAR-5 ovarian
[7] = system: SNB-19 CNS
[8] = system: KM12 colon
[9] = system: MCF7 breast
[10] = system: NCI/ADR-RES ovarian
[11] = system: HCC-2998 colon
[12] = system: NCI-H460 NSCLC
[13] = system: SF-295 CNS
[14] = system: SW-620 colon
[15] = system: IGROV1 ovarian
[16] = system: SF-539 CNS
[17] = system: SR leukemia
[18] = system: MDA-MB-468 breast
[19] = system: HCT-15 colon
[20] = system: SF-268 CNS
[21] = system: COLO 205 colon
[22] = system: BT-549 breast
[23] = system: OVCAR-3 ovarian
[24] = system: LOX IMVI melanoma
[25] = system: OVCAR-4 ovarian
[26] = system: SK-OV-3 ovarian
[27] = system: HT29 colon
[28] = system: RPMI-8226 leukemia
[29] = system: MDA-MB-435 melanoma
[30] = system: DU-145 prostate
[31] = system: HL-60(TB) leukemia
[32] = system: MALME-3M melanoma
[33] = system: MDA-MB-231 breast
[34] = system: NCI-H226 lung
[35] = system: OVCAR-8 ovarian
[36] = system: MOLT-4 leukemia
[37] = system: PC-3 prostate
[38] = system: HOP-62 NSCLC
[39] = system: UACC-257 melanoma
[40] = system: T-47D breast
[41] = system: UACC-62 melanoma
[42] = system: SK-MEL-5 melanoma
[43] = system: M14 melanoma
[44] = system: CAKI-1 renal
[45] = system: SK-MEL-28 melanoma
[46] = system: K-562 leukemia
[47] = system: SNB-75 CNS
[48] = system: RXF 393 renal
[49] = system: NCI-H23 lung
[50] = system: UO-31 renal
[51] = system: HS 578T breast
[52] = system: SN12C renal
[53] = system: CCRF-CEM leukemia
[54] = system: EKVX NSCLC
[55] = system: NCI-H322M lung
[56] = system: 786-0 renal
[57] = system: TK-10 renal

CC(=O)Nc1nc(C)c(-c2cc3c(c(S(C)(=O)=O)c2)C(=O)N([C@@H](C)C2CC2)C3)s1
GI50 [1]: 33.6 µM
TGI [1]: > 100 µM
GI50 [2]: 25.7 µM
TGI [2]: 78.2 µM
GI50 [3]: 31 µM
TGI [3]: > 100 µM
GI50 [4]: 32.1 µM
TGI [4]: > 100 µM
GI50 [5]: 19.3 µM
TGI [5]: 80.4 µM
GI50 [6]: 31.7 µM
TGI [6]: > 100 µM
GI50 [7]: 82.2 µM
TGI [7]: > 100 µM
GI50 [8]: 42.6 µM
TGI [8]: > 100 µM
GI50 [9]: 24.6 µM
TGI [9]: > 100 µM
GI50 [10]: 77.4 µM
TGI [10]: > 100 µM
GI50 [11]: 51.3 µM
TGI [11]: > 100 µM
GI50 [12]: 30 µM
TGI [12]: > 100 µM
GI50 [13]: 27.9 µM
TGI [13]: > 100 µM
GI50 [14]: > 100 µM
TGI [14]: > 100 µM
GI50 [15]: 22.6 µM
TGI [15]: 54.8 µM
GI50 [16]: 31.5 µM
TGI [16]: > 100 µM
GI50 [17]: 17.3 µM
TGI [17]: 43.8 µM
GI50 [18]: 15.5 µM
TGI [18]: 45 µM
GI50 [19]: 28.6 µM
TGI [19]: 93.4 µM
GI50 [20]: 34.7 µM
TGI [20]: > 100 µM
GI50 [21]: 38.8 µM
TGI [21]: > 100 µM
GI50 [22]: 36.9 µM
TGI [22]: > 100 µM
GI50 [23]: 26.5 µM
TGI [23]: > 100 µM
GI50 [24]: 28.2 µM
TGI [24]: 86.3 µM
GI50 [25]: 20.8 µM
TGI [25]: 77 µM
GI50 [26]: 19.3 µM
TGI [26]: 48.5 µM
GI50 [27]: 29.8 µM
TGI [27]: > 100 µM
GI50 [28]: 19.9 µM
TGI [28]: 40.8 µM
GI50 [29]: 54.4 µM
TGI [29]: > 100 µM
GI50 [30]: 34.9 µM
TGI [30]: > 100 µM
GI50 [31]: 13 µM
TGI [31]: 33.3 µM
GI50 [32]: 14.9 µM
TGI [32]: 57.1 µM
GI50 [33]: 22.3 µM
TGI [33]: > 100 µM
GI50 [34]: 35.7 µM
TGI [34]: > 100 µM
GI50 [35]: 48 µM
TGI [35]: > 100 µM
GI50 [36]: 17.5 µM
TGI [36]: 33.1 µM
GI50 [37]: 39.6 µM
TGI [37]: > 100 µM
GI50 [38]: 30.4 µM
TGI [38]: > 100 µM
GI50 [39]: 27.2 µM
TGI [39]: > 100 µM
GI50 [40]: 6.04 µM
TGI [40]: 37.3 µM
GI50 [41]: 29.1 µM
TGI [41]: > 100 µM
GI50 [42]: 15 µM
TGI [42]: 41.4 µM
GI50 [43]: 31.7 µM
TGI [43]: > 100 µM
GI50 [44]: 25.5 µM
TGI [44]: 77.6 µM
GI50 [45]: 22.8 µM
TGI [45]: > 100 µM
GI50 [46]: 29.1 µM
TGI [46]: > 100 µM
GI50 [47]: 28.6 µM
TGI [47]: > 100 µM
GI50 [48]: 30.9 µM
TGI [48]: > 100 µM
GI50 [49]: 28.7 µM
TGI [49]: > 100 µM
GI50 [50]: 31.6 µM
TGI [50]: > 100 µM
GI50 [51]: 17.5 µM
TGI [51]: 51.4 µM
GI50 [52]: 25.1 µM
TGI [52]: 91.3 µM
GI50 [53]: 26.9 nM
TGI [53]: 11.7 µM
GI50 [54]: 42.1 µM
TGI [54]: > 100 µM
GI50 [55]: 30.3 µM
TGI [55]: > 100 µM
GI50 [56]: 34.7 µM
TGI [56]: > 100 µM
GI50 [57]: 31.8 µM
TGI [57]: > 100 µM
